Test results taken from patent US11077090B2, “Compounds and compositions and uses thereof” (Sunovion Pharmaceuticals Inc., priority 2016, dated 2021).

Columns and labels:
Type in all cases: in vivo
[1] = tested on: Adult male AJ mice; test: Tail suspension test (TST); design: key: −: No decrease in Mean Total Time Immobile; +: Significant decrease in Mean Total Time Immobile (P < 0.05 vs vehicle); details: 3 mg/kg PO
Excerpt: The tail suspension test (TST) is a rodent screening test for potential (human) antidepressant drugs. It is based on the assumption that an animal will actively try to escape an aversive (stressful) stimulus. If escape is impossible, the animal will eventually stop trying (“give up”). In the TST, a mouse is suspended by the tail so that its body dangles in the air, head downward. Mice initially struggle to face upward and climb to a solid surface. When the animal stops struggling and hangs immobile it is considered to have “given up”. Shorter periods of immobility are characteristic of antidepressant-like activity. Accordingly, longer periods of immobility are considered indicative of a depressive-like state. It has been shown that treatment with an antidepressant drug will decrease the time the animal spends immobile. See generally L. Steru et al., Psychopharmacology (Berl). 1985; 85(3):367-70; B. Thierry et al., Psychopharmacology 1986; 90:284-85.
Adult male AJ mice from Jackson Laboratories received vehicle (sterile water) or test compound orally by gavage, or the positive control desipramine (20 mg/kg, i.p.), in 10 mL/kg injection volumes, 30 min before being subjected to the Tail Suspension Test. In this test, mice are placed in the Tail Suspension chambers (white polyvinylchloride cubicles measuring 33×33×31.75 cm Med Associates, Inc. St. Albans, Vt.) by a piece of transparent (Scotch®) tape attached to the tail, from about the mid-tail, with approximately 2 cm of tape past the end of the tail for 10 min during which the time spent immobile is measured. A reduction in total time immobile relative to the vehicle condition indicates an antidepressant drug-like response.

[2] = tested on: Male C57Bl/6J mice; test: Marble burying test; design: key: −: No reduction in number of marbles buried; +: Significant reduction in number of marbles buried (P < 0.05 vs vehicle)
Protocol: The marble burying assay is used to evaluate the anxiolytic activity of a test compound. After placement in a novel cage containing glass marbles, mice will bury the marbles. Acute administration of anxiolytic agents, as well as antidepressants, decrease this activity at non-sedating doses. Male C57Bl/6J mice from Jackson Laboratories were used in this study and were acclimatized to the experimental room for at least 1 hour prior to testing. Mice (n=10 per group) were administered sterile water or test compound intraperitoneally (i.p.) or orally by gavage (p.o.), or the positive control chlordiazepoxide (15 mg/kg, i.p.), in 10 mL/kg injection volumes, and returned to their home cages for a 30-minute pretreatment period. The mice were then placed individually in clean cages, containing hard wood bedding and twenty black marbles placed in spaced rows of 4×5. After a 30-minute test session, the number of buried marbles was counted. A marble was considered buried if it was pushed at least two thirds into the bedding. Locomotor activity was monitored by measuring the distance traveled using an overhead camera and Video Tracker Software (ViewPoint Life Sciences Software, France). A reduction in the number of marbles buried relative to the vehicle condition indicates an anxiolytic drug-like effect.

[3] = tested on: Male C57Bl/6J mice; test: Prepulse inhibition of startle (PPI); design: key: −: No change in PPI; +: Significant increase in PPI at one pre-pulse intensity (P < 0.05 vs vehicle); ++: Significant increase in PPI at two pre-pulse intensities (P < 0.05 vs vehicle); +++: Significant increase in PPI at three pre-pulse intensities (P < 0.05 vs vehicle); details: 3 mg/kg PO
Excerpt: The acoustic startle is an unconditioned reflex response to an external auditory stimulus. Prepulse inhibition of startle (PPI) refers to the reduction in the startle response caused by the presentation of a low-intensity auditory stimulus prior to the startle stimulus. The PPI paradigm is used for the study of schizophrenia and antipsychotic action due to the similarities between the results from human and rodent studies. PPI has been used as a tool for the assessment of deficiencies in sensory-motor gating observed in schizophrenia and to screen for potential antipsychotic drugs. Various psychotomimetic drugs, such as phencyclidine (PCP), can disrupt PPI. In mice, antipsychotic drugs such as haloperidol can increase PPI and clozapine can reverse the disruption of PPI induced by PCP.
Male C57Bl/6J mice from Jackson Laboratories were placed in the PPI chambers (Med Associates) for a 5 min session of white noise (70 dB) habituation. After the habituation period, the test session was initiated. The session started with a habituation block of 6 presentations of the startle stimulus alone, followed by 10 PPI blocks, each of which consisted of 6 different types of trials. Trial types were: ‘null’ (no stimuli), ‘startle’ (120 dB), ‘startle plus prepulse’ (4, 8, and 12 dB over background noise, i.e., 74, 78, or 82 dB) and ‘prepulse’ (82 dB). Trial types were presented in a random order within each block. Each trial started with a 50 ms stimulus-free period during which baseline movements were recorded. This was followed by a subsequent 20 ms period during which the prepulse stimulus was presented and responses to the prepulse measured. After a further 100 ms period, the startle stimulus was presented for 40 ms and responses recorded for 100 ms from startle onset. Responses were sampled every ms. The inter-trial interval was variable with an average of 15 s (range from 10 to 20 s). In ‘startle’ trials, the basic auditory startle response was measured. The basic startle response was calculated as the mean startle response of all ‘startle’ trials (i.e., excluding the first habituation block). In ‘startle plus prepulse’ trials, the degree of inhibition of the normal startle was calculated and expressed as a percentage of the basic startle response.
Mice were treated with vehicle or test compound orally by gavage, or haloperidol (1 mg/kg, i.p.), in 10 mL/kg injection volumes, 30 min prior to PPI test. The PPI enclosures were cleaned following each test. An increase in the percent PPI relative to the vehicle condition indicates an antipsychotic drug-like response.

[4] = tested on: Male C57Bl/6J mice; test: Amphetamine induced hyperlocomotion assay; design: key: #: Significant increase in total distance traveled (P < 0.05 vs vehicle + AMPH group); −: No change in total distance traveled; Significant decrease in total distance traveled (P < 0.05 vs vehicle + AMPH group); details: 3 mg/kg PO Compound + AMPH
Protocol: Psychostimulants such as amphetamine (AMPH) are frequently used to induce or mimic a manic-like or psychotic-like state. AMPH administration to rodents increases horizontal locomotion, vertical rearing and repetitive stereotyped behaviors, and typical antipsychotic drugs, such as haloperidol, can reduce these behaviors. The antimanic/antipsychotic-like effects of test compounds were evaluated in male C57Bl/6J mice from Jackson Laboratories Mice were acclimatized to the experimental room for at least 1 hour prior to testing. The mice (n=10 per group) were administered vehicle or test compound orally by gavage (10 mL/kg injection volume) and placed individually in the novel open field (OF) chambers (Med Associates) for 30 minutes of baseline activity measurement. Mice were then injected with either water or AMPH (4 mg/kg, i.p., 10 mL/kg) and placed back in the same individual OF chambers for a 60-minute testing session during which the effects of test compounds on stimulant-induced behaviors (total distance traveled, rearing and stereotypy) were measured. A reduction in total distance traveled relative to the vehicle+AMPH condition indicates an antimanic/antipsychotic drug-like response.

[5] = tested on: compound-treated mice; test: Neuropharmacological assay (SmartCube): behavioral activity signature and minimal effective dose; details: for AD: ADHD (probability of activity signature) / AG: analgesic (probability of activity signature) / AX: anxiolytic (probability of activity signature) / CE: cognitive enhancer (probability of activity signature) / DP: anti-depressant (probability of activity signature) / MS: mood stabilizer (probability of activity signature) / PS: anti-psychotic (probability of activity signature) / SD: sedative hypnotic (probability of activity signature) / UN: uncharacterized CNS activity (probability of activity signature): i.p. 15 min before test, most efficacious dose(s)
Outline: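 Mice dosed i.p. 15 min before test, compound in N-methyl-2-pyrrolidone/PEG/propylene glycol, 3 doses; video-captured behavior matched to reference-drug signatures, giving per-class probabilities at most efficacious dose. MED from doses typically 0.3–30 mpk, defined as lowest dose with ≥50% total activity.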

[6] = tested on: male Sprague-Dawley rats; test: Stress induced hyperthermia (SIH) assay; design: key: −: No change in Delta T ([…]T); +: Significant decrease in Delta T ([…]T) (P < 0.05 vs vehicle)
Excerpt: Stress-induced hyperthermia (SIH), mediated by the autonomic nervous system, is well known to occur prior to and during exposure to stress and/or anxiety-inducing situations. In many human anxiety disorders, it occurs as an integral part of the pathology and is often considered a representative symptom of the disease, e.g. in generalized anxiety disorder as defined in DSM-IV. In rodents, acute administration of anxiolytic drugs, such as buspirone or chlordiazepoxide (CDP), are known to reduce the SIH response to stressors such as handling, noise, heat, novelty, or pain. The test involves two measures of rectal temperature repeated in the same animal with a 10-minute interval. On the day prior to testing, male Sprague-Dawley rats from Envigo (n=10 per group) were brought to the experimental room approximately one hour before scheduled lights out and singly housed overnight with food and water ad libitum. On the morning of the experiment, animals were first injected with either vehicle or test compound orally by gavage, or CDP (10 mg/kg, i.p.). One hour following injection, each animal was removed from the holding cage and held in a supine position while the rectal temperature was measured by slowly inserting a rectal probe into the animal's rectum at a length of approximately 0.5 cm. The rectal probe was attached to a PhysiTemp digital thermometer (Fisher Scientific) which provides temperature readings at 0.1° C. accuracy. The probe remained inside the animal for approximately 5 seconds or until body temperature reaches stability. This temperature was recorded as the baseline rectal temperature (T1). The animal was immediately placed back to the holding cage and after a 10-min interval the second rectal temperature (T2) was taken using the same procedure as in measuring T1. Before each insertion, the rectal probe was cleaned with an alcohol pad and lubricated with sterile K-Y jelly. All SIH studies were conducted between 8:00-11:00 a.m. The SIH response was calculated as the difference in temperature between the second and first temperature reading (Delta T, […]T). A reduction in […]T relative to the vehicle condition indicates an anxiolytic drug-like response.

[7] = MED = dose having 50% or more total activity

Row | SMILES | Mean Total Time Immobile [1] | Effect on Pre-Pulse Inhibition (PPI) [3] | Total Distance Traveled [4] | Marbles Buried ([2]; 3 mg/kg (p.o.)) | AD: ADHD (probability of activity signature) [5] | AG: analgesic (probability of activity signature) [5] | AX: anxiolytic (probability of activity signature) [5] | CE: cognitive enhancer (probability of activity signature) [5] | DP: anti-depressant (probability of activity signature) [5] | MS: mood stabilizer (probability of activity signature) [5] | PS: anti-psychotic (probability of activity signature) [5] | SD: sedative hypnotic (probability of activity signature) [5] | UN: uncharacterized CNS activity (probability of activity signature) [5] | Marbles Buried ([2]; 3 mg/kg (i.p.)) | Marbles Buried ([2]; 10 mg/kg (i.p.)) | also measured
1 | N[C@H]1COCc2ccc(F)cc21 (single isomer, unassigned) [Compound 114] | − | − | − |  |  |  |  |  |  |  |  |  |  |  |  | Marbles Buried ([2]; 1 mg/kg (p.o.)): −
2 | N[C@@H]1COCc2ccc3ccccc3c21 (single isomer, unassigned) [Compound 117] | − | − | − |  |  |  |  |  |  |  |  |  |  |  |  | Marbles Buried ([2]; 1 mg/kg (p.o.)): −
3 | N[C@H]1COCc2ccc3ccccc3c21 (single isomer, unassigned) [Compound 118] | − | − | − | − |  |  |  |  |  |  |  |  |  |  |  | 
4 | C[C@@H]1OCc2ccccc2[C@H]1N (single isomer, unassigned) [Example 152] |  |  |  |  | + (LOQ ≤ + <5%) | ++ (5% ≤ ++ <25%) | +++ (25% ≤ +++ <50%) | ++ (5% ≤ ++ <25%) | ++ (5% ≤ ++ <25%) | + (LOQ ≤ + <5%) | ++ (5% ≤ ++ <25%) | + (LOQ ≤ + <5%) | +++ (25% ≤ +++ <50%) | − | + | Potency: minimal effective dose (MED) [5, 7]: A (≤3 mpk); Delta T ([…]T) ([6]; 1 mg/kg PO): +; Delta T ([…]T) ([6]; 3 mg/kg PO): +; Delta T ([…]T) ([6]; 10 mg/kg PO): +; Delta T ([…]T) ([6]; 30 mg/kg PO): +
5 | C[C@@H]1OCc2cccc(Cl)c2[C@H]1N (single isomer, unassigned) [Example 160] |  |  |  |  | + (LOQ ≤ + <5%) | ++ (5% ≤ ++ <25%) | ++ (5% ≤ ++ <25%) | ++ (5% ≤ ++ <25%) | + (LOQ ≤ + <5%) | + (LOQ ≤ + <5%) | ++ (5% ≤ ++ <25%) | + (LOQ ≤ + <5%) | +++ (25% ≤ +++ <50%) | − | + | Potency: minimal effective dose (MED), binned [5, 7]: A (≤3 mpk)
6 | CC[C@@H]1OCc2ccccc2[C@H]1N (single isomer, unassigned) [Example 195] |  |  |  |  | + (LOQ ≤ + <5%) | ++ (5% ≤ ++ <25%) | ++ (5% ≤ ++ <25%) | ++ (5% ≤ ++ <25%) | ++ (5% ≤ ++ <25%) | + (LOQ ≤ + <5%) | ++ (5% ≤ ++ <25%) | ++ (5% ≤ ++ <25%) | ++++ (50% ≤ ++++) | − | + | Potency: minimal effective dose (MED), binned [5, 7]: A (≤3 mpk)
7 | Cc1ccc2c(c1)[C@H](N)COC2 [Compound 123] | − | − | # | − |  |  |  |  |  |  |  |  |  |  |  | 
8 | Cc1ccc2c(c1)[C@@H](N)COC2 [Compound 124] | − | − | − | − |  |  |  |  |  |  |  |  |  |  |  | 
